Measurements: patent US20090105283A1, “3-HYDROQUINAZOLIN-4-ONE DERIVATIVES FOR USE AS STEAROYL CoA DESATURASE INHIBITORS” (priority 2007, published 2009)

Target: T1, stearoyl-CoA desaturase (SCD) (Rattus norvegicus, UniProt P07308)
T1 construct: The microsomes were quickly thawed and added to assay buffer so that a concentration of 0.4 mg/ml was achieved; from tissue
T1 sequence (P07308 1-358): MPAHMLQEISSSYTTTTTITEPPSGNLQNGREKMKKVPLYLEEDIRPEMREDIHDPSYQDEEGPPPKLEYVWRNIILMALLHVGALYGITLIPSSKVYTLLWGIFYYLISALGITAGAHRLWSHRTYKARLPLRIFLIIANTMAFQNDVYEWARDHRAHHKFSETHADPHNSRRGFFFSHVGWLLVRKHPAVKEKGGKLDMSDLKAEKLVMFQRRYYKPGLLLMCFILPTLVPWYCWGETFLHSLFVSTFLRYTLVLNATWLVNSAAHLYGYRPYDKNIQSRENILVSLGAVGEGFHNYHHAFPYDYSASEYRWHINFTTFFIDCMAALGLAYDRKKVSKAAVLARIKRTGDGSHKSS
Experiment: SCD assay with rat liver microsomes ([3H]stearoyl CoA, adapted from Talamo and Bloch)
Type: biochemical
Settings: [3H]stearoyl CoA substrate
Outline: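 Liver microsomes came from diet-induced male Sprague Dawley rats and were used at 0.2 mg/ml final. Assay buffer was Tris pH 7.2 with NADH, ATP, CoA, MgCl2 and 0.1% BSA. Compounds were preincubated 30 min, then reacted 45 min at room temperature with [3H]stearoyl-CoA; after TCA stop and Bio-Bead cleanup, supernatant radioactivity was counted by scintillation.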

[1] = Table 1, rat liver microsomes 0.2 mg/ml assay final, 30 min preincubation, 45 min reaction, room temperature
[2] = Table 2 (Example 21, procedures of Example 20), rat liver microsomes

IC50 [1] [nM] | IC50 [2] [nM] | Structure (SMILES)
1020 | – | CC(=O)OCC(=O)Nc1ccc2c(=O)n(Cc3ccc(Cl)c(F)c3)cnc2c1 [LXXVIII, (N-{3-[(4-chloro-3-fluorophenyl)methyl]-4-oxo-3-hydroquinazolin-7-yl}carbamoyl)methyl acetate]
– | 150 | O=C(Nc1ccc2ncn(CCCCOc3cc(Cl)ccc3Cl)c(=O)c2c1)OCc1ccccc1 [compound 54, benzyl 3-(4-(2,5-dichlorophenoxy)butyl)-4-oxo-3,4-dihydroquinazolin-6-ylcarbamate]
– | 120 | O=C(CO)Nc1ccc2ncn(CCCOc3ccccc3C(F)(F)F)c(=O)c2c1 [compound 45, 2-hydroxy-N-(4-oxo-3-(3-(2-(trifluoromethyl)phenoxy)propyl)-3,4-dihydroquinazolin-6-yl)acetamide]
1340 | – | O=C(Nc1ccc2c(=O)n(Cc3cccc(F)c3)cnc2c1)OCc1cccnc1 [LXXVI, N-{3-[(3-fluorophenyl)methyl]-4-oxo(3-hydroquinazolin-7-yl)}(3-pyridylmethoxy)carboxamide]
– | 1500 | CC(=O)OCC(=O)Nc1ccc2ncn(Cc3ccccc3C(F)(F)F)c(=O)c2c1 [compound 28, 2-oxo-2-(4-oxo-3-(2-(trifluoromethyl)benzyl)-3,4-dihydroquinazolin-6-ylamino)ethyl acetate]
7300 | – | O=C(CSc1ccncc1)Nc1ccc2ncn(Cc3ccc(Cl)cc3)c(=O)c2c1 [XXXVII, N-{3-[(4-chlorophenyl)methyl]-4-oxo(3-hydroquinazolin-6-yl)}-2-(4-pyridylthio)acetamide]
– | 490 | O=C(Nc1ccc2ncn(CCCOc3ccccc3F)c(=O)c2c1)OCc1ccccc1 [compound 46, benzyl 3-(3-(2-fluorophenoxy)propyl)-4-oxo-3,4-dihydroquinazolin-6-ylcarbamate]
2500 | – | O=C(COc1cccnc1)Nc1ccc2c(=O)n(Cc3ccc(Cl)cc3)cnc2c1 [XLIX, N-{3-[(4-chlorophenyl)methyl]-4-oxo(3-hydroquinazolin-7-yl)}-2-(3-pyridyloxy)acetamide]
– | 7700 | O=C(NCCCO)c1ccc2c(=O)n(Cc3ccc(Cl)c(Cl)c3)cnc2c1 [compound 86, 3-(3,4-dichlorobenzyl)-N-(3-hydroxypropyl)-4-oxo-3,4-dihydroquinazoline-7-carboxamide]
4390 | – | O=C(CO)Nc1ccc2c(=O)n(Cc3ccc(F)c(F)c3)cnc2c1 [CIII, N-{3-[(3,4-difluorophenyl)methyl]-4-oxo(3-hydroquinazolin-7-yl)}-2-hydroxyacetamide]
8220 | – | COc1ccc(Cn2cnc3ccc(NC(=O)CO)cc3c2=O)cc1 [CI, 2-hydroxy-N-{3-[(4-methoxyphenyl)methyl]-4-oxo(3-hydroquinazolin-6-yl)}acetamide]
16400 | – | CC(=O)OCC(=O)Nc1ccc2c(=O)n(Cc3ccc(Cl)cc3)cnc2c1 [LXVI, (N-{3-[(4-chlorophenyl)methyl]-4-oxo-3-hydroquinazolin-7-yl}carbamoyl)methyl acetate]
– | 4800 | O=C(Nc1ccc2ncn(Cc3ccc(Cl)c(Cl)c3)c(=O)c2c1)[C@@H](O)Cc1ccccc1 [compound 97, (S)—N-(3-(3,4-dichlorobenzyl)-4-oxo-3,4-dihydroquinazolin-6-yl)-2-hydroxy-3-phenylpropanamide]
2850 | – | O=C(COc1ccc2ccccc2c1)Nc1ccc2ncn(Cc3ccc(Cl)c(Cl)c3)c(=O)c2c1 [XXXII, N-{3-[(3,4-dichlorophenyl)methyl]-4-oxo(3-hydroquinazolin-6-yl)}-2-(2-naphthyloxy)acetamide]
– | 1500 | CNC(=O)c1ccc2c(=O)n(Cc3ccc(Cl)c(Cl)c3)cnc2c1 [compound 88, 3-(3,4-dichlorobenzyl)-N-methyl-4-oxo-3,4-dihydroquinazoline-7-carboxamide]
3450 | – | Cc1cccc(C)c1OCC(=O)Nc1ccc2ncn(Cc3ccc(Cl)c(Cl)c3)c(=O)c2c1 [XXI, N-{3-[(3,4-dichlorophenyl)methyl]-4-oxo(3-hydroquinazolin-6-yl)}-2-(2,6-dimethylphenoxy)acetamide]
5700 | – | Cc1ccc(OCC(=O)Nc2ccc3ncn(Cc4ccc(Cl)c(Cl)c4)c(=O)c3c2)cc1 [XXII, N-{3-[(3,4-dichlorophenyl)methyl]-4-oxo(3-hydroquinazolin-6-yl)}-2-(4-methylphenoxy)acetamide]
3120 | – | O=C(CO)Nc1ccc2c(=O)n(Cc3ccc(Cl)cc3)cnc2c1 [LXXXI, N-{3-[(4-chlorophenyl)methyl]-4-oxo(3-hydroquinazolin-7-yl)}-2-hydroxyacetamide]

IC50 [1] [nM] | IC50 [2] [nM] | Structure (SMILES)
180 | – | CC(=O)OCC(=O)Nc1ccc2c(=O)n(Cc3ccc(Cl)c(Cl)c3)cnc2c1 [LXIV, (N-{3-[(3,4-dichlorophenyl)methyl]-4-oxo-3-hydroquinazolin-7-yl}carbamoyl)methyl acetate]
– | 69 | O=C(Nc1ccc2ncn(CCCOc3ccccc3C(F)(F)F)c(=O)c2c1)OCc1ccccc1 [compound 41, benzyl 4-oxo-3-(3-(2-(trifluoromethyl)phenoxy)propyl)-3,4-dihydroquinazolin-6-ylcarbamate]
– | 940 | CC(=O)OCC(=O)Nc1ccc2ncn(Cc3ccc(Cl)cc3)c(=O)c2c1 [compound 3, 2-(3-(4-chlorobenzyl)-4-oxo-3,4-dihydroquinazolin-6-ylamino)-2-oxoethyl acetate]
7900 | – | CC(C)COC(=O)Nc1ccc2ncn(Cc3ccc(Cl)c(Cl)c3)c(=O)c2c1 [VII, N-{3-[(3,4-dichlorophenyl)methyl]-4-oxo(3-hydroquinazolin-6-yl)}(2-methylpropoxy)carboxamide]
– | 340 | O=C(CO)Nc1ccc2ncn(Cc3ccc4ccccc4c3)c(=O)c2c1 [compound 31, 2-hydroxy-N-(3-(naphthalen-2-ylmethyl)-4-oxo-3,4-dihydroquinazolin-6-yl)acetamide]
– | 2100 | CC(=O)OCC(=O)Nc1ccc2ncn(Cc3ccc(F)c(F)c3)c(=O)c2c1 [compound 1, 2-(3-(3,4-difluorobenzyl)-4-oxo-3,4-dihydroquinazolin-6-ylamino)-2-oxoethyl acetate]
310 | – | CN(C)CC(=O)OCC(=O)Nc1ccc2c(=O)n(Cc3ccc(Cl)c(Cl)c3)cnc2c1 [XC, (N-{3-[(3,4-dichlorophenyl)methyl]-4-oxo-3-hydroquinazolin-7-yl}carbamoyl)methyl 2-(dimethylamino)acetate]
– | 480 | C[C@H](c1ccc(Cl)c(C(F)(F)F)c1)n1cnc2ccc(NC(=O)CO)cc2c1=O [compound 34, (R)—N-(3-(1-(4-chloro-3-(trifluoromethyl)phenyl)ethyl)-4-oxo-3,4-dihydroquinazolin-6-yl)-2-hydroxyacetamide]
– | 290 | CC(c1ccc(Cl)c(Cl)c1)n1cnc2cc(NC(=O)OCc3ccccc3)ccc2c1=O (stereo not drawn) [compound 9, benzyl 3-(1-(3,4-dichlorophenyl)ethyl)-4-oxo-3,4-dihydroquinazolin-7-ylcarbamate]
– | 15000 | O=C(CO)Nc1ccc2ncn(CCNS(=O)(=O)c3cc(Cl)ccc3Cl)c(=O)c2c1 [compound 71, N-(3-(2-(2,5-dichlorophenylsulfonamido)ethyl)-4-oxo-3,4-dihydroquinazolin-6-yl)-2-hydroxyacetamide]
– | 310 | O=C(Nc1ccc2ncn(Cc3ccc(F)c(C(F)(F)F)c3)c(=O)c2c1)OCc1ccccc1 [compound 14, benzyl 3-(4-fluoro-3-(trifluoromethyl)benzyl)-4-oxo-3,4-dihydroquinazolin-6-ylcarbamate]
– | 20 | O=C(CO)Nc1ccc2ncn(CCc3ccc(Cl)cc3)c(=O)c2c1 [compound 37, N-(3-(4-chlorophenethyl)-4-oxo-3,4-dihydroquinazolin-6-yl)-2-hydroxyacetamide]
– | 170 | CC(c1ccc(Cl)c(Cl)c1)n1cnc2cc(NC(=O)CO)ccc2c1=O (stereo not drawn) [compound 11, N-(3-(1-(3,4-dichlorophenyl)ethyl)-4-oxo-3,4-dihydroquinazolin-7-yl)-2-hydroxyacetamide]
120 | – | O=C(Nc1ccc2c(=O)n(Cc3ccc(F)c(Cl)c3)cnc2c1)OCc1cccnc1 [LXXIV, N-{3-[(3-chloro-4-fluorophenyl)methyl]-4-oxo(3-hydroquinazolin-7-yl)}(3-pyridylmethoxy)carboxamide]
6100 | – | O=C(COc1ccccc1)Nc1ccc2ncn(Cc3ccc(Cl)c(F)c3)c(=O)c2c1 [XXXIX, N-{3-[(4-chloro-3-fluorophenyl)methyl]-4-oxo(3-hydroquinazolin-6-yl)}-2-phenoxyacetamide]
2810 | – | O=C(CSc1ccc(Cl)cc1)Nc1ccc2ncn(Cc3ccc(Cl)c(Cl)c3)c(=O)c2c1 [LVI, N-{3-[(3,4-dichlorophenyl)methyl]-4-oxo(3-hydroquinazolin-6-yl)}-2-(4-chlorophenylthio)acetamide]
– | 1700 | O=C(C[C@@H](O)c1ccccc1)Nc1ccc2ncn(Cc3ccc(Cl)c(Cl)c3)c(=O)c2c1 [compound 99, (R)—N-(3-(3,4-dichlorobenzyl)-4-oxo-3,4-dihydroquinazolin-6-yl)-3-hydroxy-3-phenylpropanamide]

Structure (SMILES) | IC50 [1] [nM] | IC50 [2] [nM]
Cc1ccc(OC(=O)Nc2ccc3ncn(Cc4ccc(Cl)c(Cl)c4)c(=O)c3c2)cc1 [XI, N-{3-[(3,4-dichlorophenyl)methyl]-4-oxo(3-hydroquinazolin-6-yl)}(4-methylphenoxy)carboxamide] | 2700 | –
